This is an account of results in patent EP3124027A1, “TRIPHENYLPHOSPHONIUM SALTS FOR USE IN CANCER THREAPY” (Centrum Badan Molekularnych I Makromolekularnych Polskiej …, priority 2015, dated 2017).

The subject of data set [1] is cervical carcinoma HeLa cells and chronic myelogenous leukemia K562 cells. Nature of the data set: MTT cytotoxicity, summary ranges over HeLa and K562 cells. The data set is classed as cell-based. To be noted: Homo sapiens, read-out: IG50 (the source's name). The procedure: Compound 1, where R = ethyl, X = I (formula 1a) and the compound 1 where R = n-octyl, and X = I (formula 1b, were tested for cytotoxic properties on two representatives of human tumor cells: adherent HeLa cells (cervical carcinoma) and suspension K562 cells (chronic myelogenous leukemia). The cytotoxicity of the test compounds was determined with the MTT test in which the yellow tetrazolium salt is reduced by dehydrogenase in the mitochondria of living cells into a purple formazan. 1.HeLa or K562 cells were seeded in 96-well plates in the amount of seven thousand cells/well in 200 µL of culture medium. Cells were incubated overnight in an incubator (37 °C, 5% CO2) 2. The tested compound was added to the cells to yield the following final concentrations in the cell culture: 1 mM, 10 µM, 100 nM, 1 nM. Cells treated with 1% DMSO served as the control with 100% viability. 3. […] MTT, a yellow tetrazolium salt is reduced to purple formazan by mitochondrial dehydrogenases of living cells, the quantity of which can be determined spectrophotometrically. Cells were incubated with MTT for two hours in an incubator (37 ° C, 5% CO2). Next, lysis buffer containing SDS and DMF was added (95 µL / well). Cells were lysed overnight at 37 ° C, 5% CO2. 4. The absorbance of each well was read on FLUOstar Omega reader at the wave length of 570 and 650 nm. The absorbance measured at 570 nm is proportional to the number of viable cells. The viability of the cells was calculated for each concentration of the test compound. The IC50 values were read from the dose - viability plots by interpolation to 50% cell survival. 5.The results indicating the strong toxicity of both, compound 1a and compound 1b to the adherent HeLa cells and suspension K562 cells are shown in Tables 1 and 2.

In data set [2] the test system is HeLa cells (cervical carcinoma). Nature of the data set: MTT cytotoxicity test on adherent HeLa cells. Format: cell-based, human. To be noted: for cytotoxicity, times greater in relation to the salt Fh3P^+C5H11 I^-: HeLa cells after 48 h; for IC50: Homo sapiens, HeLa. The procedure:
(§1) Compound 1, where R = ethyl, X = I (formula 1a) and the compound 1 where R = n-octyl, and X = I (formula 1b, were tested for cytotoxic properties on two representatives of human tumor cells: adherent HeLa cells (cervical carcinoma) and suspension K562 cells (chronic myelogenous leukemia). The cytotoxicity of the test compounds was determined with the MTT test in which the yellow tetrazolium salt is reduced by dehydrogenase in the mitochondria of living cells into a purple formazan. 1.HeLa or K562 cells were seeded in 96-well plates in the amount of seven thousand cells/well in 200 µL of culture medium. Cells were incubated overnight in an incubator (37 °C, 5% CO2) 2. The tested compound was added to the cells to yield the following final concentrations in the cell culture: 1 mM, 10 µM, 100 nM, 1 nM. Cells treated with 1% DMSO served as the control with 100% viability. 3. After 24 h or 48 h incubation of HeLa or K562 cells with test compounds, 25 µL of MTT (5 mg / mL) was added to each well. MTT, a yellow tetrazolium salt is reduced to purple formazan by mitochondrial dehydrogenases of living cells, the quantity of which can be determined spectrophotometrically. Cells were incubated with MTT for two hours in an incubator (37 ° C, 5% CO2). Next, lysis buffer containing SDS and DMF was added (95 µL / well). Cells were lysed overnight at 37 ° C, 5% CO2. 4. The absorbance of each well was read on FLUOstar Omega reader at the wave length of 570 and 650 nm. The absorbance measured at 570 nm is proportional to the number of viable cells. The viability of the cells was calculated for each concentration of the test compound. The IC50 values were read from the dose - viability plots by interpolation to 50% cell survival. 5.The results indicating the strong toxicity of both, compound 1a and compound 1b to the adherent HeLa cells and suspension K562 cells are shown in Tables 1 and 2.
(§2) The compound of formula 1c was tested for cytotoxic properties on two human cell lines using the MTT assay (yellow tetrazolium salt transformed by dehydrogenase in the mitochondria of living cells into the purple formazan). The tests were performed on HeLa (cervical carcinoma) and K562 (chronic myelogenous leukemia) cells.
(§3) (Experimental protocol as in Example I).
A general note: Tetrazolium dyes change colour on reduction, which living cells bring about.

Data set [3] deals with K562 cells (chronic myelogenous leukemia). Nature of the data set: MTT cytotoxicity test on suspension K562 cells. As to conditions: for fold decrease of IC50 after 48 h compared to IC50 after 24h: K562 cells; for cytotoxicity, times greater in relation to the salt Fh3P^+C5H11 I^-: K562 cells after 48 h. Format: cell-based, human. The procedure:
as §1, §2, §3

Data set [4] concerns HeLa cells. As to conditions: read-out: cytotoxicity EC50; cited from earlier work.
For data set [5], the system named is cervical carcinoma cells (HeLa). To be noted: after 24 h, PL395749; cited from earlier work.
In data set [6] the test system is K562 and HeLa cells. As to conditions: PL395749, cited from earlier work.
Data set [7] relates to K562 cells. As to conditions: K562, 24 h; PL395749; cited from earlier work.
The mark [8] stands for this setting: Homo sapiens, K562, 24 h, read-out: IC50.
Setting [9] is: Homo sapiens, K562, 48 h, read-out: IC50.

The EC50 is the concentration that produces a half-maximal response.

SMILES strings stand for the structures. Like-named read-outs stand apart in the source and are kept apart here.

Consider `CCCCCCCCCC[P+](c1ccccc1)(c1ccccc1)c1ccccc1.[I-]` [Compound 1a, n-decyltriphenylphosphonium iodide], for which the IC50 in data set [1] (after 4 h (so in the source)) is 2 to 7 µM; in data set [1] (after 48 hrs) it was 0.5 to 5 µM; in data set [2] (24h, read-out: IC50) it was 7 µM; in data set [2] (48h, read-out: IC50), 5 µM; in data set [3] (setting [8]), 3 µM; in data set [3] (setting [9]) it was 0.5 µM. The “cytotoxicity, times greater in relation to the salt Fh3P^+C5H11 I^-” value in data set [2] is on record as 12-15 times; in data set [3], 12 times. Moreover, in data set [3], the “fold decrease of IC50 after 48 h compared to IC50 after 24h” value is recorded as “six”.
On to `CCCCCCCCCCCCCC[P+](CCCCCC)(CCCCCC)CCCCCC.O=S(=O)([N-]S(=O)(=O)C(F)(F)F)C(F)(F)F` [tri-n-hexyl(tetradecyl)phosphonium bis(trifluoromethylsulfonyl) imide], for which the half-maximal effective concentration (EC50) in data set [4] was 80 µM.
`CCCCC[P+](c1ccccc1)(c1ccccc1)c1ccccc1` [Compound C5]: the IC50 in data set [5] was 90 µM; in data set [6] (after 24 h) it was 50 to 90 µM; in data set [6] (second value for C5, printed after 24 h) it was 6 to 60 µM; in data set [7], 50 µM.
As to `CCCCCCCCCCCCCCCC[P+](c1ccccc1)(c1ccccc1)c1ccccc1.[I-]` [Compound 1b, triphenyl-n-hexadecylphosphonium iodide], the IC50 was 2 to 7 µM in data set [1] (after 4 h (so in the source)); 0.5 to 5 µM in data set [1] (after 48 hrs); 5 µM in data set [2] (24h, read-out: IC50); 4 µM in data set [2] (48h, read-out: IC50); 2 µM in data set [3] (setting [8]); 0.5 µM in data set [3] (setting [9]). The “cytotoxicity, times greater in relation to the salt Fh3P^+C5H11 I^-” value in data set [2] is recorded as 12-15 times; in data set [3], 12 times. For the same molecule, the “fold decrease of IC50 after 48 h compared to IC50 after 24h” value in data set [3] is “four”.
Turning to `BrCc1ccc(-c2ccc(C[P+](c3ccccc3)(c3ccccc3)c3ccccc3)cc2)cc1` [Compound 1c], the IC50 in data set [2] (48 h (Table 2, compound 1c), read-out: IC50 48 h) came to 30 µM; in data set [3] (Homo sapiens, K562, 48 h, K562, 48 h (Table 2, compound 1c), read-out: IC50 48 h), 6 µM; in data set [3] (K562, 48 h (Table 2, compound 1c), read-out: IC50 48 h), 5 µM.
